Laboratory results as given in patent US8450314B2, “Pyrimidopyridazine derivatives useful as P38 MAPK inhibitors” (Chiesi Farmaceutici S.p.A., priority 2009, dated 2013).

Molecular target: T1, p38α (Homo sapiens, UniProt Q16539)
T1 construct: purchased Calbiochem 559324; host or cells: E. coli
Test: p38 Kinase Assay (ATF-2 phosphorylation ELISA)
Type: biochemical
Conditions: human recombinant p38 activated with MKK6; 2 h preincubation; ATP 250 μM; 1% DMSO; read-out: p38α inhibition
Description: Human recombinant p38 enzyme expressed in E. coli and activated by incubation with MKK6 enzyme (Calbiochem #559324) is used as source of enzyme activity.
The assay is carried in high binding, clear, flat bottom 96 well assay plates which have been coated with recombinant ATF-2 (Biosource #PHF0043). Test compounds are incubated with p38 kinase for 2 h prior to initiating the kinase assay by the addition of ATP to obtain an assay concentration of 250 μM. Phosphorylation of ATF-2 is detected and quantified using an ELISA. This consists of sequential incubation in the presence of anti-phospho-ATF2, biotinylated anti-IgG and streptavidin-HRP. Incubation with an HRP chromogenic substrate (TMB) results in absorbance that is proportional to the amount of phosphorylated substrate produced. Absorbance is detected using a multiwell plate reader.
Compounds are diluted in DMSO prior to addition to assay buffer, the final DMSO concentration in the assay being 1%.
The IC50 is defined as the concentration at which a given compound achieves 50% inhibition of control.

T1 sequence (Q16539 whole entry): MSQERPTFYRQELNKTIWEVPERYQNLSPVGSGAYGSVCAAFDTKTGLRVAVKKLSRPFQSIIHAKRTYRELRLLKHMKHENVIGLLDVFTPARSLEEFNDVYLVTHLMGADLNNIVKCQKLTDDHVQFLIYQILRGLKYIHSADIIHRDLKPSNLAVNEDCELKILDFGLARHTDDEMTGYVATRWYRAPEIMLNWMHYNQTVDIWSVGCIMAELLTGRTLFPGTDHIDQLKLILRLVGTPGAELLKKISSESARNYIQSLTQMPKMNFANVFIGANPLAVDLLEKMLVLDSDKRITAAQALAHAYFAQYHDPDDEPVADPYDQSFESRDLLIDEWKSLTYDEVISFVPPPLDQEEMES

Row | SMILES | IC50 [nM]
1 | NC(=O)C(c1ccc(Sc2ccccc2CNC(=O)c2cc(F)cc(N3CCOCC3)c2)nn1)c1c(Cl)cccc1Cl (centres unmarked) [Example 1, N-[2-({6-[2-Amino-1-(2,6-dichlorophenyl)-2-oxoethyl]pyridazin-3-yl}sulfanyl)benzyl]-3-fluoro-5-(morpholin-4-yl)benzamide] | < 10
2 | O=C(NCc1ccccc1Sc1ccc2c(-c3c(Cl)cccc3Cl)c(=O)ncn2n1)c1cc(F)cc(N2CCOCC2)c1 [Example 2, N-(2-{[5-(2,6-Dichlorophenyl)-6-oxo-6H-pyrimido[1,6-b]pyridazin-2-yl]sulfanyl}benzyl)-3-fluoro-5-(morpholin-4-yl)benzamide] | < 100
